Laboratory results from paper PMC6753678, “Fueling Open Innovation for Malaria Transmission-Blocking Drugs: Hundreds of Molecules Targeting Early Parasite Mosquito Stages” (Frontiers in Microbiology, 2019).
Like-named read-outs stand apart in the source and are kept apart here.

Columns and labels:
[1] = test system: P. falciparum late stage (stages IV-V) gametocytes; test: P. falciparum late stage gametocyte ATP depletion assay (Pf GC-ATP); conditions: 1: YES; 0: NO
HepG2 cells [2] = test: HepG2 cytotoxicity assay; conditions: HepG2 cytotoxicity unified across the three screens
Procedure, shortened: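 Cells at 2,500 per well in MEM with 10% fetal bovine serum and 1% NEAA were exposed to test compounds for 48 h at 37°C, 5% CO2. Viability was read by fluorescence, with percent inhibition calculated against 50 μM doxorubicin (positive) and DMSO (negative) controls.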

[3] = test system: P. falciparum female gametocytes; test: P. falciparum female gametogenesis assay (Pf FGAA); conditions: 1: YES; 0: NO
[4] = test system: P. falciparum late stage (stages IV-V) gametocytes; set-up: method as in Almela et al 2016; conditions: TCAMS screen comparison; ref Almela et al 2016; read-out: Pf GCT ATP IC50; cited from earlier work
[5] = test system: P. falciparum female gametocytes; set-up: method as in Miguel-Blanco et al 2017; conditions: TCAMS screen comparison; ref Miguel-Blanco et al 2017; read-out: Pf FGAA IC50; cited from earlier work
HepG2 cells [6] = conditions: cited from earlier work
[7] = value reported with the Pf FGAA screen, ref Miguel-Blanco et al 2017
[8] = value reported with the Pf GCT ATP screen, ref Almela et al 2016

N=C(/N=C(/NCCCCCCN/C(=N\C(=N)Nc1ccc(Cl)cc1)N1CCCCC1)N1CCCCC1)Nc1ccc(Cl)cc1 [TCMDC-131811]
Is compound selective in assay? Pf GC-ATP active? [1]: 1 (1: YES)
Unified cytotox (HepG2 cells [2]): 33.57 µM
Is compound selective in assay? Pf FGAA active? [3]: 0 (0: NO)
IC50 [4]: 380 nM
IC50 [5]: 7870 nM
HepG2 cytoxicity (HepG2 cells [6]; [7]): 44.23 µM
HepG2 cytoxicity (HepG2 cells [6]; [8]): 22.9 µM

N=C(/N=C(/NCCCCCCN/C(=N/C(=N)NCc1ccc(Cl)c(Cl)c1)N1CCCCC1)N1CCCCC1)NCc1ccc(Cl)c(Cl)c1 [TCMDC-131816]
Is compound selective in assay? Pf GC-ATP active? [1]: 1 (1: YES)
Unified cytotox (HepG2 cells [2]): 43.18 µM
Is compound selective in assay? Pf FGAA active? [3]: 1 (1: YES)
IC50 [4]: 370 nM
IC50 [5]: 2610 nM
HepG2 cytoxicity (HepG2 cells [6]; [7]): 43.18 µM
HepG2 cytoxicity (HepG2 cells [6]; [8]): >25 µM

CCN(CC)/C(=N/C(=N)NCc1ccc(Cl)cc1Cl)NCCCCCCN/C(=N\C(=N)NCc1ccc(Cl)cc1Cl)N(CC)CC [TCMDC-131819]
Is compound selective in assay? Pf GC-ATP active? [1]: 1 (1: YES)
Unified cytotox (HepG2 cells [2]): 36.73 µM
Is compound selective in assay? Pf FGAA active? [3]: 0 (0: NO)
IC50 [4]: 300 nM
IC50 [5]: 4750 nM
HepG2 cytoxicity (HepG2 cells [6]; [7]): 36.73 µM

CCCCN(CCCC)/C(=N/C(=N)NCc1ccc(Cl)c(Cl)c1)NCCCCCCN/C(=N\C(=N)NCc1ccc(Cl)c(Cl)c1)N(CCCC)CCCC [TCMDC-131821]
Is compound selective in assay? Pf GC-ATP active? [1]: 1 (1: YES)
Unified cytotox (HepG2 cells [2]): 13.18 µM
Is compound selective in assay? Pf FGAA active? [3]: 0 (0: NO)
IC50 [4]: 620 nM
IC50 [5]: 2510 nM
HepG2 cytoxicity (HepG2 cells [6]; [7]): 13.96 µM
HepG2 cytoxicity (HepG2 cells [6]; [8]): 12.4 µM

COc1cc2nc(NCCCN3CCCCC3)nc(NCc3ccccc3)c2cc1OC [TCMDC-132012]
Is compound selective in assay? Pf GC-ATP active? [1]: 1 (1: YES)
Unified cytotox (HepG2 cells [2]): 7.89 µM
Is compound selective in assay? Pf FGAA active? [3]: 0 (0: NO)
IC50 [4]: 300 nM
IC50 [5]: 900 nM
HepG2 cytoxicity (HepG2 cells [6]; [7]): 6.84 µM
HepG2 cytoxicity (HepG2 cells [6]; [8]): 8.94 µM

CCc1c(CCNCCCCCCNC(C)Cc2ccc3c(c2CC)OCO3)ccc(OC)c1OC.Cl (stereo not drawn) [TCMDC-132052]
Is compound selective in assay? Pf GC-ATP active? [1]: 0 (0: NO)
Unified cytotox (HepG2 cells [2]): 2.78 µM
Is compound selective in assay? Pf FGAA active? [3]: 0 (0: NO)
IC50 [4]: 330 nM
IC50 [5]: 480 nM
HepG2 cytoxicity (HepG2 cells [6]; [7]): 2.46 µM
HepG2 cytoxicity (HepG2 cells [6]; [8]): 3.1 µM

CCc1c(CCNCCCCCCNC(C)(C)Cc2ccc3c(c2CC)OCO3)ccc(OC)c1OC.Cl [TCMDC-132055]
Is compound selective in assay? Pf GC-ATP active? [1]: 1 (1: YES)
Unified cytotox (HepG2 cells [2]): 4.32 µM
Is compound selective in assay? Pf FGAA active? [3]: 0 (0: NO)
IC50 [4]: 270 nM
IC50 [5]: 1220 nM
HepG2 cytoxicity (HepG2 cells [6]; [7]): 4.27 µM
HepG2 cytoxicity (HepG2 cells [6]; [8]): 4.37 µM

Nc1c(Cl)cc(C(O)CNCCCCCOCCCc2ccc(O)c3ncccc23)cc1Cl.O=C(O)/C=C/C(=O)O (stereo not drawn) [TCMDC-132088]
Is compound selective in assay? Pf GC-ATP active? [1]: 1 (1: YES)
Unified cytotox (HepG2 cells [2]): 6.14 µM
Is compound selective in assay? Pf FGAA active? [3]: 0 (0: NO)
IC50 [4]: 450 nM
IC50 [5]: 2100 nM
HepG2 cytoxicity (HepG2 cells [6]; [7]): 7.76 µM
HepG2 cytoxicity (HepG2 cells [6]; [8]): 4.51 µM

O=C(O)C(F)(F)F.O=S(=O)(NCCN1CCCC1)c1cccc(-c2ccc(CNC3Cc4ccccc4C3)cc2)c1 [TCMDC-132241]
Is compound selective in assay? Pf GC-ATP active? [1]: 0 (0: NO)
Unified cytotox (HepG2 cells [2]): 7.23 µM
Is compound selective in assay? Pf FGAA active? [3]: 0 (0: NO)
IC50 [4]: 2150 nM
IC50 [5]: 3100 nM
HepG2 cytoxicity (HepG2 cells [6]; [7]): 6.46 µM
HepG2 cytoxicity (HepG2 cells [6]; [8]): 8 µM

COc1ccc(CNC2Cc3ccccc3C2)cc1-c1ccc(S(=O)(=O)NCCN2CCCC2)cc1.O=C(O)C(F)(F)F [TCMDC-132248]
Is compound selective in assay? Pf GC-ATP active? [1]: 0 (0: NO)
Unified cytotox (HepG2 cells [2]): 7.08 µM
Is compound selective in assay? Pf FGAA active? [3]: 0 (0: NO)
IC50 [4]: 1380 nM
IC50 [5]: 1990 nM
HepG2 cytoxicity (HepG2 cells [6]; [7]): 5.89 µM
HepG2 cytoxicity (HepG2 cells [6]; [8]): 8.28 µM

COc1ccc(CNC2Cc3ccccc3C2)cc1-c1ccc(OC)c(S(=O)(=O)NCCN2CCCC2)c1.O=C(O)C(F)(F)F [TCMDC-132251]
Is compound selective in assay? Pf GC-ATP active? [1]: 1 (1: YES)
Unified cytotox (HepG2 cells [2]): 11.89 µM
Is compound selective in assay? Pf FGAA active? [3]: 0 (0: NO)
IC50 [4]: 1140 nM
IC50 [5]: 2700 nM
HepG2 cytoxicity (HepG2 cells [6]; [7]): 7.17 µM
HepG2 cytoxicity (HepG2 cells [6]; [8]): 16.6 µM

Cc1cccc2nc(-c3ccc(-c4ccc(CNCc5ccc(CN)cc5)cc4)s3)[nH]c12.O=C(O)C(F)(F)F [TCMDC-132809]
Is compound selective in assay? Pf GC-ATP active? [1]: 1 (1: YES)
Unified cytotox (HepG2 cells [2]): 19.40 µM
Is compound selective in assay? Pf FGAA active? [3]: 1 (1: YES)
IC50 [4]: 860 nM
IC50 [5]: 470 nM
HepG2 cytoxicity (HepG2 cells [6]; [7]): 14.79 µM
HepG2 cytoxicity (HepG2 cells [6]; [8]): 24 µM

NCc1ccc(CNCc2cccc(-c3ccc(-c4nc5cc(C(F)(F)F)ccc5[nH]4)cc3)c2)cc1.O=C(O)C(F)(F)F [TCMDC-132811]
Is compound selective in assay? Pf GC-ATP active? [1]: 1 (1: YES)
Unified cytotox (HepG2 cells [2]): 19.47 µM
Is compound selective in assay? Pf FGAA active? [3]: 1 (1: YES)
IC50 [4]: 860 nM
IC50 [5]: 830 nM
HepG2 cytoxicity (HepG2 cells [6]; [7]): 14.65 µM
HepG2 cytoxicity (HepG2 cells [6]; [8]): 24.3 µM

FC(F)(F)c1ccc2[nH]c(-c3ccc(-c4ccc(CNCCN5CCNCC5)cc4)s3)nc2c1.O=C(O)C(F)(F)F [TCMDC-132862]
Is compound selective in assay? Pf GC-ATP active? [1]: 0 (0: NO)
Unified cytotox (HepG2 cells [2]): 9.89 µM
Is compound selective in assay? Pf FGAA active? [3]: 0 (0: NO)
IC50 [4]: 1290 nM
IC50 [5]: 3000 nM
HepG2 cytoxicity (HepG2 cells [6]; [7]): 12.88 µM
HepG2 cytoxicity (HepG2 cells [6]; [8]): 6.9 µM

FC(F)(F)c1ccc2[nH]c(-c3ccc(-c4cccc(CNCCN5CCNCC5)c4)cc3)nc2c1.O=C(O)C(F)(F)F [TCMDC-132864]
Is compound selective in assay? Pf GC-ATP active? [1]: 1 (1: YES)
Unified cytotox (HepG2 cells [2]): 14.90 µM
Is compound selective in assay? Pf FGAA active? [3]: 0 (0: NO)
IC50 [4]: 1080 nM
IC50 [5]: 1710 nM
HepG2 cytoxicity (HepG2 cells [6]; [7]): 12.31 µM
HepG2 cytoxicity (HepG2 cells [6]; [8]): 17.5 µM

FC(F)(F)c1ccc2[nH]c(-c3cccc(-c4ccc(CNCCN5CCNCC5)cc4)c3)nc2c1.O=C(O)C(F)(F)F [TCMDC-132872]
Is compound selective in assay? Pf GC-ATP active? [1]: 1 (1: YES)
Unified cytotox (HepG2 cells [2]): 10.72 µM
Is compound selective in assay? Pf FGAA active? [3]: 0 (0: NO)
IC50 [4]: 860 nM
IC50 [5]: 1790 nM
HepG2 cytoxicity (HepG2 cells [6]; [7]): 8.81 µM
HepG2 cytoxicity (HepG2 cells [6]; [8]): 12.62 µM

Fc1ccc2[nH]c(-c3ccc(-c4ccc(CN5CCC(CCN6CCCCC6)CC5)cc4)cc3)nc2c1.O=C(O)C(F)(F)F [TCMDC-133924]
Is compound selective in assay? Pf GC-ATP active? [1]: 1 (1: YES)
Unified cytotox (HepG2 cells [2]): 4.62 µM
Is compound selective in assay? Pf FGAA active? [3]: 0 (0: NO)
IC50 [4]: 460 nM
IC50 [5]: 1700 nM
HepG2 cytoxicity (HepG2 cells [6]; [7]): 3.94 µM
HepG2 cytoxicity (HepG2 cells [6]; [8]): 5.3 µM

Fc1ccc2[nH]c(-c3cccc(-c4ccc(CN5CCC(CCN6CCCCC6)CC5)cc4)c3)nc2c1.O=C(O)C(F)(F)F [TCMDC-133940]
Is compound selective in assay? Pf GC-ATP active? [1]: 1 (1: YES)
Unified cytotox (HepG2 cells [2]): 4.99 µM
Is compound selective in assay? Pf FGAA active? [3]: 0 (0: NO)
IC50 [4]: 430 nM
IC50 [5]: 1880 nM
HepG2 cytoxicity (HepG2 cells [6]; [7]): 4.79 µM
HepG2 cytoxicity (HepG2 cells [6]; [8]): 5.2 µM

FC(F)(F)c1ccc2[nH]c(-c3ccc(-c4cccc(CN5CCC(CCN6CCCCC6)CC5)c4)cc3)nc2c1.O=C(O)C(F)(F)F [TCMDC-133941]
Is compound selective in assay? Pf GC-ATP active? [1]: 0 (0: NO)
Unified cytotox (HepG2 cells [2]): 3.93 µM
Is compound selective in assay? Pf FGAA active? [3]: 0 (0: NO)
IC50 [4]: 510 nM
IC50 [5]: 1260 nM
HepG2 cytoxicity (HepG2 cells [6]; [7]): 4.45 µM
HepG2 cytoxicity (HepG2 cells [6]; [8]): 3.4 µM
